Experimental data from PMC10644722, “Discovery of inhibitors of protein tyrosine phosphatase 1B contained in a natural products library from Mexican medicinal plants and fungi using a combination of enzymatic and in silico methods**” (Frontiers in Pharmacology, 2023).
Several values for one entry are separate records, joined by “and”; a condition that tells them apart may be missing. Equal values may be shown once. Entries after “also recorded” stand apart in the source; their conditions may differ. Read-outs that look alike come from different tables or passages of the source.

Columns and labels:
hPTP1B1-400 = biological target: T1, hPTP1B1-400 (Homo sapiens, UniProt P18031); assay: PTP1B inhibition assay (spectrophotometric, 4-nitrophenyl phosphate); format: biochemical; details: for ΔA, activity difference between UA and the compound: absolute pIC50 difference against ursolic acid
T1 sequence (P18031 1-400): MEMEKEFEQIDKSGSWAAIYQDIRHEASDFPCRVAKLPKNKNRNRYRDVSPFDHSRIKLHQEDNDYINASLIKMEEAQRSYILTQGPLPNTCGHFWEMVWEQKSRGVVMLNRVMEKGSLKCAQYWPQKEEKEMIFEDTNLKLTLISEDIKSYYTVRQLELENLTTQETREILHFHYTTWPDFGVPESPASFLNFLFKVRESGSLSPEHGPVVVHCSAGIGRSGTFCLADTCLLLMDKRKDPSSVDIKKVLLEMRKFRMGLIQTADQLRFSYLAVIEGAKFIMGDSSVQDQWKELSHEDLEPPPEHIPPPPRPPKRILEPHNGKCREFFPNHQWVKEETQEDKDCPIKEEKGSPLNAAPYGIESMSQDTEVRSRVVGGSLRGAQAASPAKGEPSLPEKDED
Method: The inhibitory activity was determined as a percentage compared to the blank (Buffer) according to the following equation: %InhibitionPTP1B=1−A405s/A405b×100%, (1) where A405(s) is the ΔA of the sample (At20 − At0), A405(b) is the ΔA of the blank obtained in the same manner as that of the sample. Using the data obtained, the enzyme inhibition curve was plotted, for which the average percentage of inhibition was plotted as a function of the inhibitor concentration.

PTP1B [1] = biological target: T2, PTP1B (Homo sapiens, UniProt P18031); assay: Kinetic analysis of PTP1B inhibition; format: biochemical; details: for type of inhibition: double-reciprocal plots, global nonlinear fit; for VMAX: maximum velocity, nonlinear fit, substrate 4-NP
T2 sequence (P18031 1-400): T1 sequence (P18031 1-400)
Method: The conditions for preparing reagents (enzyme and substrate), incubation, and analysis of results were the same as that described in Section 2.1 ([Jiménez-Arreola et al., 2020]; [Díaz-Rojas et al., 2021]). Additional steps in the methodology are described below.
To characterize the type of inhibition exerted by 1, 3, and 6 on PTP1B, the hydrolysis of 4-NP at the sub-saturating state and increasing concentrations of each compound was measured. […] The compound concentration yielding 50% activity inhibition was interpolated from the results by fitting into a general inhibition model. The resulting set of activities was fitted globally using the non-linear regression algorithm of Levenberg–Marquardt as implemented in the Gnuplot ([Williams et al., 2017]). Each group was fitted to the kinetic equations for linear competitive, linear uncompetitive, linear non-competitive (classic), linear mixed type, parabolic competitive, parabolic uncompetitive, and parabolic non-competitive inhibition mechanisms. The best fit was ascertained by the reduced chi-squared (χ^2) value, residual distribution, and uncertainty in the parameter estimates. The best description of the inhibition data for compounds 1, 3, and 6 was obtained with Eq. 2, Eq. 3, and Eq. 4, respectively, where VMAX, KM, and KIcu, KIC, and KIU are the maximum velocity, Michaelis constant for the substrate 4-NP, and inhibition constants for each type of inhibition, respectively. v0=VMAX4NP/KM1+I/KIcu+4NP1+I/KIcu, (2) v0=VMAX4NP/KM1+I/KIC+4NP1+I/KIU, (3) v0=VMAX4NP/KM1+I/KIC+I^2/KIC2^2+4NP. (4)

ICR mice = details: male, mouse, in vivo, 14 days
Method: The potential acute toxicity of compound 6 was determined according to the Lorke’s method ([Lorke, 1983]). The evaluation was performed following the Official Mexican Norm for Laboratory Animal Care and Use (NOM-062-ZOO-1999), with international conventional codes for laboratory animal use, and approved by the Institutional Committee for Care and Use of Laboratory Animals (CICUAL-FQ), Facultad de Química, UNAM (FQ/CICUAL/440/21). […]. At the end of the experiments, the mice were euthanized by hypoxia in a CO2 chamber.
Compound 6 was fed by an intragastric route in two independent phases. In each case, 12 mice were divided into four groups (n = 3). In the first stage, the animals were treated with 10, 100, and 1,000 mg/kg; in the second phase, 1,600, 2,900, and 5,000 mg/kg were administered. The control animals were fed 0.05% Tween 80® in saline solution. The weight of the animals was measured daily for 14 days at each stage. At the end of the test, all animals were euthanized to obtain the lungs, heart, kidneys, and liver to detect macroscopic organ injury.

PTP1B [2] = test system: PTP1B; design: method as in Lantz et al., 2010; Kumar et al., 2020; details: known inhibitors of PTP1B; ref Lantz et al., 2010; Kumar et al., 2020; cited from earlier work
[3] = DoseResp model fit, Origin 8.0, axis C (mM), read-out: LOGx0 of the IC50 curve
[4] = enzyme 66 nM, 4-NP 0.125 mM, Tris-HCl pH 6.8, 20 min, room temperature, read-out: IC50
[5] = negative log of the IC50 in Molar, read-out: pIC50 (converted)
[6] = mixed type (Eq. 3) or parabolic competitive model (Eq. 4), read-out: KIC
[7] = Hill1 model fit, Origin 8.0, axis C (mM), read-out: k of the IC50 curve
[8] = negative log of the IC50 in Molar

Row | Compound | IC50 (hPTP1B1-400; [3]) [mM] | ΔA, activity difference between UA and the compound (hPTP1B1-400) | IC50 (hPTP1B1-400; [4]) [mM] | IC50 (hPTP1B1-400; [5]) [mM] | further results
1 | C[C@H]1C(=O)CC[C@@H]2[C@]1(C)CC[C@H]1[C@@]2(C)CC[C@@]2(C)[C@@H]3CC(C)(C)CC[C@]3(CO)CC[C@]12C [Compound 1, Canophyllol] | 0.0332 ± 0.00257 | 0.2 | 0.0332 ± 3e-06 | 0.0331 | %I (hPTP1B1-400; 0.02 mM compound): 95.54 ± 1.82%; %I (hPTP1B1-400; 1 mM compound): 98.59 ± 0.28%; type of inhibition (PTP1B [1]): non-competitive inhibitor; VMAX (PTP1B [1]): 44.1 mM/min; Ki (PTP1B [1]; non-competitive model (Eq. 2), read-out: KIcu): 9 µM
2 | COc1c(O)cc2ccc3cccc(O)c3c2c1OC [Compound 3, 3,4-Dimethoxy-2,5-phenanthrenediol] | 0.0477 ± 0.0982 | 0.34 and 0.3 | 0.0477 ± 0.0001 | 0.0479 | %I (hPTP1B1-400; 0.02 mM compound): 70.62 ± 0.58%; %I (hPTP1B1-400; 1 mM compound): 97.4 ± 0.69%; type of inhibition (PTP1B [1]): mixed-type; also recorded: mixed inhibitor; VMAX (PTP1B [1]): 56.1 mM/min; Ki (PTP1B [1]; [6]): 40 µM; Ki (PTP1B [1]; mixed type model (Eq. 3), read-out: KIU): 110 µM
3 | CC=CC1=CC=CC(=C2C(=O)CNC2=O)O1 [Compound 6, E/Z-vermelhotin] | 0.0796 ± 0.0957 | 0.6 and 0.56 | 0.0796 ± 0.0001 | 0.0794 | LC50 (ICR mice): higher than 5,000 mg/kg; type of inhibition (PTP1B [1]): competitive parabolic inhibition; VMAX (PTP1B [1]): 24.7 mM/min; Ki (PTP1B [1]; [6]): 31 µM; Ki (PTP1B [1]; parabolic competitive model (Eq. 4), second inhibitor molecule, read-out: KIC2): 20 µM
4 | COC(=O)/C(C)=C\CC[C@H](C)[C@@H]1CC[C@]2(C)C3=CCC4C(C)(C)C(=O)CC[C@]4(C)C3CC[C@@]12C (stereo partly shown) [Compound 86, Methyl ester of masticadienonic acid] | 0.325 ± 0.00894 | 1.2 | 0.3245 ± 1e-06 | 0.324 | 
5 | CC(=CCCC(C)C1CCC2(C)C3=C(CCC12C)C1(C)CCC(=O)C(C)(C)C1CC3)C(=O)O (stereo not shown) [Compound 89, Isomasticadienonic acid] | 0.419 ± 0.00938 | 1.3 and 1.28 | 0.419 ± 1e-05 | 0.417 | 
6 | CC(=O)OCC(C)C1CCC2(C)C1CCC1(C)C2CCC2C3(C)CCCC(C)(C)C3CCC21C (stereo not drawn) [Compound 90, 21-α-H-Hopane acetate] |  | 1.6 and 1.61 | 0.8839 ± 0.0002 | 0.891 | IC50 (hPTP1B1-400; [7]): 0.884 ± 0.213 mM
7 | COc1cc(CCc2ccc(OC)c(OC)c2)cc(OC)c1 [Compound 91, 3,3',4',5-Tetramethoxybibenzyl] |  | 1.3 |  |  | IC50 (hPTP1B1-400; IC50 (μM), enzyme 66 nM, 4-NP 0.125 mM, Tris-HCl pH 6.8, 20 min, room temperature): 0.4195 ± 6e-06 mM; IC50 (hPTP1B1-400; LOGx0 of the IC50 curve, DoseResp model fit, Origin 8.0, axis C (mM)): 0.42 ± 0.00629 mM; IC50 (hPTP1B1-400; pIC50, negative log of the IC50 in Molar): 0.417 mM
8 | CC1(C)C=Cc2cc3ccc(=O)oc3cc2O1 [Compound 93, Xanthyletin] |  | 1.6 | 0.8646 ± 0.00015 | 0.871 | IC50 (hPTP1B1-400; [7]): 0.865 ± 0.148 mM
9 | COc1c2c(cc3oc(C)cc(=O)c13)OC(C)(C)[C@H](O)C2 [Compound 94, (+)-5-Methoxyhamaudol] |  | 1.1 | 0.2985 ± 0.00015 |  | IC50 (hPTP1B1-400; [7]): 0.298 ± 0.146 mM; pIC50 (hPTP1B1-400; [8]): 3.53
10 | C=CC(C)(C)C12CC3(O)c4nc5ccccc5c(=O)n4C(C(C)C)C(=O)N3C1N(C(C)=O)c1ccccc12 (stereo not shown) [Compound 96, Albolutein A] |  | -0.1 | 0.0191 ± 0.0014 | 0.0191 | 
11 | C=CC(C)(C)[C@@]12Nc3ccccc3[C@]1(O)C[C@@]1(O)c3nc4ccccc4c(=O)n3[C@@H](C(C)C)C(=O)N12 [Compound 97, Albolutein B] |  | 0.1 | 0.0258 ± 0.0258 |  | pIC50 (hPTP1B1-400; [8]): 4.59
12 | Cc1cc(-c2c3ccccc3c(Br)c3sc(C)c(C)c23)cc(C)c1O[C@H](Cc1ccccc1)C(=O)O [E, ertiprotafib] |  |  |  |  | pIC50 (PTP1B [2]): 4.70
13 | CC(C)[C@@H](CC[C@@H](C)[C@H]1CC[C@H]2[C@@H]3[C@H](O)C[C@H]4C[C@@H](NCCCNCCCCNCCCN)CC[C@]4(C)[C@H]3CC[C@]12C)OS(=O)(=O)O [T, trodusquemine] |  |  |  |  | pIC50 (PTP1B [2]): 6.0
14 | Albolutein C [Compound 98] |  | 0.8 | 0.13 ± 0.0026 |  | pIC50 (hPTP1B1-400; [8]): 3.89
15 | Calein A [Compound 46] | 0.234 ± 0.0196 | 1.0 | 0.2345 ± 2e-05 |  | pIC50 (hPTP1B1-400; [8]): 3.63
